The values below come from article PMC7400577 (Scientific Reports, 2020).

Read-outs that look alike come from different tables or passages of the source.

What all share (format): cell-based
The target of experiment [1] is T1, hGAT1 (Homo sapiens, UniProt P30531).
T1 construct: expressed in transfected cells
The experiment in a line: [3H]GABA uptake inhibition at hGAT1 stably expressed in CHO Flp-In cells. The following applies: 30 nM [3H]GABA, 3 min, CHO Flp-In cells stably expressing hGAT1. The procedure: (§1) CHO Flp-In and tsA201 cells were cultured at 37 °C in a humidified atmosphere of […] and 5% CO2. As previously described[38],[63], CHO Flp-In cells stably expressing the hGATs were cultured in Ham’s F12 Nutrient Mix supplemented with 10% FBS, 1% P/S and plasmocin (5 µg/mL) under the selection pressure of hygromycin B (200 µg/mL). DMEM with GlutaMAX-I supplemented with 10% FBS and 1% P/S was used as growth medium for the tsA201 cells, which were transfected with DNA constructs using PolyFect according to the manufacturer’s specifications (Qiagen, West Sussex, UK), but with half of the recommended reagent volumes.
(§2) Uptake assays were performed in PDL-coated white 96-well polystyrene cell culture microplates (PerkinElmer, Boston, MA, USA) as previously described[38],[63]. […] Assay buffer was HBSS supplemented with 20 mM HEPES, 1 mM CaCl2 and 1 mM MgCl2, pH 7.4. […] After termination, scintillation liquid (MicroScint-20, PerkinElmer) was added and the radioactivity measured in a TopCount NXT Microplate Scintillation Counter (PerkinElmer).
(§3) Data analysis and statistical evaluation were performed in GraphPad Prism 7.02 (GraphPad Software, San Diego, CA, USA). Concentration-uptake inhibition curves, generated from the radioligand-based uptake assays, were fitted by non-linear regression, using the equation for sigmoidal concentration–response with variable slope: Y = Bottom + (Top–Bottom)/(1 + 10^((logIC50 − X) × HillSlope)), where Y is the response, X is the logarithm of the concentration, Top and Bottom are the plateaus in same units as Y, logIC50 is the concentration giving a response halfway between Bottom and Top, and the HillSlope is the steepness of the curve. For the substrate concentration–response curves generated from the FMP assay, the same equation was used but with logEC50 instead for logIC50. Unless otherwise stated, data are presented as means ± S.E.M. of at least three independent pooled experiments performed in triplicates.

For experiment [2], the target named is T2, hGAT2 (Homo sapiens, UniProt Q9NSD5).
T2 construct: expressed in transfected cells
T2 sequence (Q9NSD5 1-602): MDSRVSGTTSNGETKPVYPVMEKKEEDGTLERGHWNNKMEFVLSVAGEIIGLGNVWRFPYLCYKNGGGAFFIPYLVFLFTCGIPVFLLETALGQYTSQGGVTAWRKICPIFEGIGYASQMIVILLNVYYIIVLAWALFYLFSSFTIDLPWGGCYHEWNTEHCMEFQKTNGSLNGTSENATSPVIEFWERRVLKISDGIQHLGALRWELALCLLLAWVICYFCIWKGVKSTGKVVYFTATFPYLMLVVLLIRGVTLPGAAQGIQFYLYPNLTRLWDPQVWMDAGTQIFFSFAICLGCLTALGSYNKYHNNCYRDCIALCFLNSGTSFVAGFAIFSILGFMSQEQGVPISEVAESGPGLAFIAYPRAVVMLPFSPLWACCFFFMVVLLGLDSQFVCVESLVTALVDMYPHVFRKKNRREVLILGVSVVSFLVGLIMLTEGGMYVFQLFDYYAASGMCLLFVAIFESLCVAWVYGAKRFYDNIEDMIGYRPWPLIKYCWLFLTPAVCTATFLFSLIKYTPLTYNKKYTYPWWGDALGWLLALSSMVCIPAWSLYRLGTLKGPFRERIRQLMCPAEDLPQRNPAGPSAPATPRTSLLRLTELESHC
The experiment in a line: [3H]GABA uptake inhibition at hGAT2 stably expressed in CHO Flp-In cells. The note with it: 30 nM [3H]GABA, 3 min, CHO Flp-In cells stably expressing hGAT2. The protocol:
as §1, §2, §3

The target of experiment [3] is T3, hGAT3 (Homo sapiens, UniProt P48066).
T3 construct: expressed in transfected cells
T3 sequence (P48066 1-632): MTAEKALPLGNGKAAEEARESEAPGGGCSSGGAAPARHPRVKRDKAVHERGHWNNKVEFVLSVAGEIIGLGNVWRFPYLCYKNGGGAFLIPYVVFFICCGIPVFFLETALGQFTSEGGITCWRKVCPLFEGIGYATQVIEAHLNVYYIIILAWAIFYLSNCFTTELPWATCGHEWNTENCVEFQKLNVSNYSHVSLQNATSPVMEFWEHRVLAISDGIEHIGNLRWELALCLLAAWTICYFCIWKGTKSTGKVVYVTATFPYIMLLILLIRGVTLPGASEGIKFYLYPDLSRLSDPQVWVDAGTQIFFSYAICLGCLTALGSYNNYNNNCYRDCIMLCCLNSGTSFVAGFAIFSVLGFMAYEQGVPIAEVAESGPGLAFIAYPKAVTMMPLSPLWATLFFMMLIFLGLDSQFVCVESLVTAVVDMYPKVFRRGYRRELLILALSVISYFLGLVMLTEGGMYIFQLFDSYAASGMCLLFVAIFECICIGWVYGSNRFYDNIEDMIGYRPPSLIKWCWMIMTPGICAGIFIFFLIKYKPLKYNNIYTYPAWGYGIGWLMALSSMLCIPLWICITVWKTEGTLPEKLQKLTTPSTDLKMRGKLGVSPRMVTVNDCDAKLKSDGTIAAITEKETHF
The experiment in a line: [3H]GABA uptake inhibition at hGAT3 stably expressed in CHO Flp-In cells. The note with it: 30 nM [3H]GABA, 3 min, CHO Flp-In cells stably expressing hGAT3; read-out: IC50 hGAT3. The procedure: as §1, §2, §3

Experiment [4] deals with T4, hBGT1 (Homo sapiens, UniProt P48065).
T4 construct: expressed in transfected cells
T4 sequence (P48065 1-614): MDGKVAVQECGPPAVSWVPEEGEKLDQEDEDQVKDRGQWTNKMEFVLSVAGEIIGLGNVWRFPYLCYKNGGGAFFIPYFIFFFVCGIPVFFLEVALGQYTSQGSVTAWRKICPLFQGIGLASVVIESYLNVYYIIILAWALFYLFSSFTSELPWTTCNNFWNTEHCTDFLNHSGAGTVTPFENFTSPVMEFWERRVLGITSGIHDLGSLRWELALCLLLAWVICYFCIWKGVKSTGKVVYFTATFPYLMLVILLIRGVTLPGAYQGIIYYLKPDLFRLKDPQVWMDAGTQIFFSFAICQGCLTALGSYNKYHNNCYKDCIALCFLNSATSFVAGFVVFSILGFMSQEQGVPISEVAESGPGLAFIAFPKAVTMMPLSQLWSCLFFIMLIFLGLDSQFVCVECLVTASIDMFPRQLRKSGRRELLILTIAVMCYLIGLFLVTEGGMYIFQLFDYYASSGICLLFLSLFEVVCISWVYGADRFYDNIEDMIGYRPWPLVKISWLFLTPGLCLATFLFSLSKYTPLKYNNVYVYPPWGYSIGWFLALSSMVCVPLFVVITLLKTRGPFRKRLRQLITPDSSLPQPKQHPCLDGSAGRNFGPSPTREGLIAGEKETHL
The note with it: for IC50: 30 nM [3H]GABA, 3 min, CHO Flp-In cells stably expressing hBGT1; for subtype-selectivity for hBGT1 over the other hGATs: estimated from [3H]GABA uptake IC50 values, CHO Flp-In cells. The procedure: as §1, §2, §3

Experiment [5] has as its target T5, hBGT1 wt (Homo sapiens, UniProt P48065).
T5 construct: expressed in transfected cells; host or cells: tsA201 cells, transient (PolyFect), pcDNA5/FRT vector
T5 sequence (P48065 1-614): T4 sequence (P48065 1-614)
Kind of experiment: [3H]GABA uptake inhibition at wt hBGT1 transiently expressed in tsA201 cells. The note with it: 30 nM [3H]GABA, tsA201 cells transiently expressing wt hBGT1.

The mark [6] stands for this setting: read-out: pIC50 ± S.E.M. hBGT1 (converted).
[7] abbreviates: read-out: pIC50 ± S.E.M. hGAT2 (converted).

T1 sequence (P30531 whole entry): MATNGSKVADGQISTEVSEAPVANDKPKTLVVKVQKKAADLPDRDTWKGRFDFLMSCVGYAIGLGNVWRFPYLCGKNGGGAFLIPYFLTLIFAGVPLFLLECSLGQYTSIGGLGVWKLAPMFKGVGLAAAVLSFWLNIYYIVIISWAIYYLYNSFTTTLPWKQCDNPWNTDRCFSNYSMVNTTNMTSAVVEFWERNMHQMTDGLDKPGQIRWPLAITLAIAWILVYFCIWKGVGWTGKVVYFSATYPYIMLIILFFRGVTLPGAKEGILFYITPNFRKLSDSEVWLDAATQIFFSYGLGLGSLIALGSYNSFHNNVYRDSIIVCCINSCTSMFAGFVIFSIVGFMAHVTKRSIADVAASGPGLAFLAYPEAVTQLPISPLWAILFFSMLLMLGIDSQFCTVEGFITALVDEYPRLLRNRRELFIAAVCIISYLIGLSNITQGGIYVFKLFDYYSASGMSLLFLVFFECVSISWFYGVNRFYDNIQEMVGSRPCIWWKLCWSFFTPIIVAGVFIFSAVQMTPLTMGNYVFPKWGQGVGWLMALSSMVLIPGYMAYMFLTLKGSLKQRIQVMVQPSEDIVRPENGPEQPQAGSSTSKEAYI

Regarding `C[C@@H]1N=C(N)NC[C@@H]1C(=O)O` (single isomer, unassigned) [l-15b], the IC50 is greater than 1 mM in experiment [1] (read-out: IC50 hGAT1); greater than 1 mM in experiment [2] (read-out: IC50 hGAT2); greater than 1 mM in experiment [3]; 0.442 mM in experiment [4] (read-out: IC50 hBGT1); 0.417 mM in experiment [4] (setting [6]). Further, in experiment [4], the “subtype-selectivity for hBGT1 over the other hGATs” value (“subtype-selectivity for hBGT1” below) is 2–3 times.

On to `CCCC1N=C(N)NCC1C(=O)O` (stereo not drawn) [compound 16], for which the IC50 in experiment [1] (read-out: IC50 hGAT1) was greater than 1 mM; in experiment [2] (read-out: IC50 hGAT2) it was 0.601 mM; in experiment [2] (setting [7]), 0.589 mM; in experiment [3], greater than 1 mM; in experiment [4] (read-out: IC50 hBGT1) it was greater than 1 mM.

Turning to `C[C@H]1N=C(N)NC[C@@H]1C(=O)O` (single isomer, unassigned) [u-15a], the IC50 in experiment [1] (read-out: IC50 hGAT1) is greater than 1 mM; in experiment [2] (read-out: IC50 hGAT2) it was greater than 1 mM; in experiment [3] it was greater than 1 mM; in experiment [4] (read-out: IC50 hBGT1) it was 0.292 mM; in experiment [4] (setting [6]), 0.269 mM. In experiment [4], the “subtype-selectivity for hBGT1” value was 2–3 times.

Turning to `NC1=NCC(C(=O)O)=CN1Cc1ccccc1` [compound 9], the IC50 in experiment [5] (read-out: IC50 BGT1 wt) is greater than 1 mM.

For the compound `NC1=NCC(C(=O)O)CN1CCCC(c1ccccc1)c1ccccc1` (stereo not drawn) [compound 7], the IC50 in experiment [1] (read-out: IC50 hGAT1), in experiment [2] (read-out: IC50 hGAT2), in experiment [3] and in experiment [4] (read-out: IC50 hBGT1) was greater than 1 mM throughout.

With `C[C@H]1N=C(N)NC[C@@H]1C(=O)O` (single isomer, unassigned) [u-15b], the IC50 is greater than 1 mM in experiment [1] (read-out: IC50 hGAT1); greater than 1 mM in experiment [2] (read-out: IC50 hGAT2); greater than 1 mM in experiment [3]; 0.085 mM in experiment [4] (read-out: IC50 hBGT1); 0.0776 mM in experiment [4] (setting [6]). In experiment [4], the “subtype-selectivity for hBGT1” value is “at least 12 times”.

In the case of `Cc1ccsc1C(=CCCN1CC(C(=O)O)CN=C1N)c1sccc1C` (stereo not drawn) [compound 8], the IC50 in experiment [5] (read-out: IC50 BGT1 wt) is 0.621 mM; in experiment [5] (read-out: pIC50 ± S.E.M. BGT1 wt (converted)), 0.631 mM.

As for `CC(C)C1=C(C(=O)O)CNC(N)=N1` [compound 14], the IC50 is greater than 1 mM in experiment [1] (read-out: IC50 hGAT1); 1.01 mM in experiment [2] (read-out: IC50 hGAT2); 0.955 mM in experiment [2] (setting [7]); greater than 1 mM in experiment [3]; greater than 1 mM in experiment [4] (read-out: IC50 hBGT1).

For the compound `C[C@@H]1N=C(N)NC[C@@H]1C(=O)O` (relative stereo) [l-15], in experiment [4] (setting [6]), the IC50 was 0.0417 mM.

Consider `O=C(O)C1CN=C(NCCc2ccccc2)NC1` (stereo not drawn) [compound 10], for which the IC50 was 0.439 mM in experiment [1] (read-out: IC50 hGAT1); 0.427 mM in experiment [1] (read-out: pIC50 ± S.E.M. hGAT1 (converted)); greater than 1 mM in experiment [2] (read-out: IC50 hGAT2); greater than 1 mM in experiment [3]; greater than 1 mM in experiment [4] (read-out: IC50 hBGT1).

Regarding `NC1=N[C@@H](CCc2ccc(-c3ccccc3)cc2)[C@@H](C(=O)O)CN1` (relative stereo) [l-19], the IC50 in experiment [1] (read-out: IC50 hGAT1), in experiment [2] (read-out: IC50 hGAT2), in experiment [3] and in experiment [4] (read-out: IC50 hBGT1) was greater than 1 mM throughout.

For the compound `NC1=NC(CCc2ccccc2)C(C(=O)O)CN1` (stereo not drawn) [l-18], the IC50 in experiment [1] (read-out: IC50 hGAT1), in experiment [2] (read-out: IC50 hGAT2), in experiment [3] and in experiment [4] (read-out: IC50 hBGT1) was greater than 1 mM in each case.

As for `CC1=C(C(=O)O)CNC(N)=N1` [compound 12], the IC50 in experiment [1] (read-out: IC50 hGAT1), in experiment [2] (read-out: IC50 hGAT2), in experiment [3] and in experiment [4] (read-out: IC50 hBGT1) was greater than 1 mM throughout.

For the compound `NC1=NCC(C(=O)O)CN1CCC(c1ccccc1)c1ccccc1` (stereo not drawn) [compound 6], the IC50 in experiment [1] (read-out: IC50 hGAT1), in experiment [2] (read-out: IC50 hGAT2), in experiment [3] and in experiment [4] (read-out: IC50 hBGT1) was greater than 1 mM throughout.

In the case of `CCCC1=C(C(=O)O)CNC(N)=N1` [compound 13], the IC50 was greater than 1 mM in experiment [1] (read-out: IC50 hGAT1); 0.53 mM in experiment [2] (read-out: IC50 hGAT2); 0.501 mM in experiment [2] (setting [7]); greater than 1 mM in experiment [3]; greater than 1 mM in experiment [4] (read-out: IC50 hBGT1).

`CC(C)C1N=C(N)NCC1C(=O)O` (stereo not drawn) [compound 17]: the IC50 in experiment [1] (read-out: IC50 hGAT1), in experiment [2] (read-out: IC50 hGAT2), in experiment [3] and in experiment [4] (read-out: IC50 hBGT1) was greater than 1 mM each time.
